Test results as given in patent US12077503B2, “Substituted cyclic amides and their use as herbicides” (FMC CORPORATION, priority 2015, dated 2024).
Read-outs that look alike come from different tables or passages of the source.

What was measured:
Format in all cases: in vivo
[1] = tested on: pigweed (Amaranthus retroflexus); test: Test A postemergence; conditions: Amaranthus retroflexus, post-emergence, 240 h; for pest or weed control at 125 g/ha: 125 g ai/ha; for pest or weed control at 500 g/ha: 500 g ai/ha, visual injury, 0 to 100 scale (0 no effect, 100 complete control)
Summary of the method: (§1)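 Preemergence directed soil spray on seeded pots, or postemergence application to plants 2–10 cm, one- to two-leaf. Solvent mixture non-phytotoxic, with surfactant. Scored ~10 d later, visually, 0–100 vs untreated.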

[2] = tested on: Galium (catchweed bedstraw, Galium aparine); test: Test A postemergence; conditions: Galium, post-emergence, 240 h; for pest or weed control at 125 g/ha: 125 g ai/ha; for pest or weed control at 500 g/ha: 500 g ai/ha, visual injury, 0 to 100 scale (0 no effect, 100 complete control)
Summary of the method: as §1

[3] = tested on: barnyardgrass (Echinochloa crus-galli); test: Test A postemergence; conditions: Echinochloa crus-galli, post-emergence, 240 h, read-out: Plant response rating, Barnyardgrass; for pest or weed control at 125 g/ha: 125 g ai/ha, Postemergence, visual injury after approximately 10 d, 0 to 100 scale where 0 is no effect and 100 is complete control; for pest or weed control at 500 g/ha: 500 g ai/ha, postemergence, visual injury, 0 to 100 scale (0 no effect, 100 complete control), approx. 10 d
Summary of the method: as §1

corn (Zea mays) = test: Test A postemergence; conditions: Zea mays, post-emergence, 240 h; for Corn plant response rating (crop injury, 0 = no effect, 100 = complete kill) at 125 g/ha: 125 g ai/ha, Postemergence, visual injury after approximately 10 d, 0 to 100 scale where 0 is no effect and 100 is complete control; for Corn plant response rating (crop injury, 0 = no effect, 100 = complete kill) at 500 g/ha: 500 g ai/ha, postemergence, visual injury, 0 to 100 scale (0 no effect, 100 complete control), approx. 10 d
Summary of the method: as §1

Kochia (Kochia scoparia) [4] = test: Test A postemergence; conditions: Bassia scoparia, post-emergence, 240 h; for pest or weed control at 125 g/ha: 125 g ai/ha; for pest or weed control at 500 g/ha: 500 g ai/ha, visual injury, 0 to 100 scale (0 no effect, 100 complete control)
Summary of the method: as §1

[5] = tested on: ryegrass, Italian (Italian ryegrass, Lolium multiflorum); test: Test A preemergence; conditions: Lolium multiflorum, pre-emergence, 240 h; for pest or weed control at 125 g/ha: 125 g ai/ha, Preemergence, visual injury rating after approximately 10 d, read-out: Ryegrass, Italian plant response rating (0 to 100 scale, 0 is no effect, 100 is complete control); for pest or weed control at 500 g/ha: 500 g ai/ha, preemergence, visual injury rating about 10 d after treatment, 0 to 100 scale (0 no effect, 100 complete control), read-out: Ryegrass, Italian plant response rating
Summary of the method: as §1

[6] = tested on: pigweed (Amaranthus retroflexus); test: Test A preemergence; conditions: Amaranthus retroflexus, pre-emergence, 240 h; for pest or weed control at 125 g/ha: 125 g ai/ha, Preemergence, visual injury rating after approximately 10 d, read-out: Pigweed plant response rating (0 to 100 scale, 0 is no effect, 100 is complete control); for pest or weed control at 500 g/ha: 500 g ai/ha, preemergence, visual injury rating about 10 d after treatment, 0 to 100 scale (0 no effect, 100 complete control), read-out: Pigweed plant response rating
[7] = tested on: barnyardgrass (Echinochloa crus-galli); test: Test A preemergence; conditions: Echinochloa crus-galli, pre-emergence, 240 h; for pest or weed control at 125 g/ha: 125 g ai/ha, Preemergence, visual injury rating after approximately 10 d, read-out: Barnyardgrass plant response rating (0 to 100 scale, 0 is no effect, 100 is complete control); for pest or weed control at 500 g/ha: 500 g ai/ha, preemergence, visual injury rating about 10 d after treatment, 0 to 100 scale (0 no effect, 100 complete control), read-out: Barnyardgrass plant response rating
Summary of the method: as §1

Kochia (Kochia scoparia) [8] = test: Test A preemergence; conditions: Bassia scoparia, pre-emergence, 240 h; for pest or weed control at 125 g/ha: 125 g ai/ha, Preemergence, visual injury rating after approximately 10 d, read-out: Kochia plant response rating (0 to 100 scale, 0 is no effect, 100 is complete control); for pest or weed control at 500 g/ha: 500 g ai/ha, preemergence, visual injury rating about 10 d after treatment, 0 to 100 scale (0 no effect, 100 complete control), read-out: Kochia plant response rating
Summary of the method: as §1

[9] = tested on: ragweed (common ragweed, Ambrosia elatior); test: Test A preemergence; conditions: Ambrosia artemisiifolia, pre-emergence, 240 h; for pest or weed control at 125 g/ha: 125 g ai/ha, Preemergence, visual injury rating after approximately 10 d, read-out: Ragweed plant response rating (0 to 100 scale, 0 is no effect, 100 is complete control); for pest or weed control at 500 g/ha: 500 g ai/ha, preemergence, visual injury rating about 10 d after treatment, 0 to 100 scale (0 no effect, 100 complete control), read-out: Ragweed plant response rating
Summary of the method: as §1

[10] = tested on: giant foxtail (Setaria faberii); test: Test A preemergence; conditions: Setaria faberi, pre-emergence, 240 h; for pest or weed control at 125 g/ha: 125 g ai/ha, Preemergence, visual injury rating after approximately 10 d, read-out: Foxtail, Giant plant response rating (0 to 100 scale, 0 is no effect, 100 is complete control); for pest or weed control at 500 g/ha: 500 g ai/ha, preemergence, visual injury rating about 10 d after treatment, 0 to 100 scale (0 no effect, 100 complete control), read-out: Foxtail, Giant plant response rating
Summary of the method: as §1

[11] = tested on: ducksalad (Heteranthera limosa); test: Test B flooded paddy test; conditions: Heteranthera limosa, 250 g ai/ha, Flood; 0 to 100 scale where 0 is no effect and 100 is complete control; read-out: Ducksalad plant response rating
Summary of the method: (§2)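 Greenhouse paddy pots with 2-leaf stage plants received compound by direct addition to floodwater 3 cm deep, kept at that level. Scored visually at 13–15 d versus controls (0 no effect; 100 complete control).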

[12] = tested on: barnyardgrass (Echinochloa crus-galli); test: Test B flooded paddy test; conditions: Echinochloa crus-galli, 250 g ai/ha, Flood; 0 to 100 scale where 0 is no effect and 100 is complete control; read-out: Barnyardgrass plant response rating
Summary of the method: as §2

rice (Oryra sativa) = test: Test B flooded paddy test; conditions: Oryza sativa, 250 g ai/ha, Flood; 0 to 100 scale where 0 is no effect and 100 is complete control; read-out: Rice plant response rating
Summary of the method: as §2

[13] = tested on: sedge, umbrella (small-flower umbrella sedge, Cyperus difformis); test: Test B flooded paddy test; conditions: Cyperus difformis, 250 g ai/ha, Flood; 0 to 100 scale where 0 is no effect and 100 is complete control; read-out: Sedge, Umbrella plant response rating
Summary of the method: as §2

[14] = Postemergence, visual injury after approximately 10 d, 0 to 100 scale where 0 is no effect and 100 is complete control, read-out: Plant response rating, Pigweed
[15] = postemergence, approx. 10 d, read-out: Plant response rating, Pigweed
[16] = Postemergence, visual injury after approximately 10 d, 0 to 100 scale where 0 is no effect and 100 is complete control, read-out: Plant response rating, Galium
[17] = postemergence, approx. 10 d, read-out: Plant response rating, Galium
[18] = Postemergence, visual injury after approximately 10 d, 0 to 100 scale where 0 is no effect and 100 is complete control, read-out: Plant response rating, Kochia
[19] = postemergence, approx. 10 d, read-out: Plant response rating, Kochia

| SMILES | pest or weed control at 500 g/ha [1, 15] | pest or weed control at 500 g/ha [2, 17] | pest or weed control at 125 g/ha [3] | pest or weed control at 500 g/ha [3] | Corn plant response rating (crop injury, 0 = no effect, 100 = complete kill) at 125 g/ha (corn (Zea mays)) | Corn plant response rating (crop injury, 0 = no effect, 100 = complete kill) at 500 g/ha (corn (Zea mays)) | pest or weed control at 500 g/ha (Kochia (Kochia scoparia) [4]; [19]) | pest or weed control at 125 g/ha [5] | pest or weed control at 500 g/ha [5] | pest or weed control at 125 g/ha [6] | pest or weed control at 500 g/ha [6] | pest or weed control at 125 g/ha [7] | pest or weed control at 500 g/ha [7] | pest or weed control at 125 g/ha (Kochia (Kochia scoparia) [8]) | pest or weed control at 500 g/ha (Kochia (Kochia scoparia) [8]) | pest or weed control at 125 g/ha [9] | pest or weed control at 500 g/ha [9] | pest or weed control at 125 g/ha [10] | pest or weed control at 500 g/ha [10] | pest or weed control at 250 g/ha [11] | also measured |
| --- | --- | --- | --- | --- | --- | --- | --- | --- | --- | --- | --- | --- | --- | --- | --- | --- | --- | --- | --- | --- | --- |
| Cc1ccc([C@H]2CN(C)C(=O)[C@@H]2C(=O)Nc2cccc(F)c2C)cc1Cl [Compound 1014] | 30% | 60% | 90% | 90% | 70% | 90% | 50% | 0% | 70% | 30% | 30% | 90% | 90% | 20% | 70% | 0% | 0% | 90% | 90% | 85% | pest or weed control at 125 g/ha [1, 14]: 30%; pest or weed control at 125 g/ha [2, 16]: 20%; pest or weed control at 125 g/ha (Kochia (Kochia scoparia) [4]; [18]): 30%; pest or weed control at 250 g/ha [12]: 100%; pest or weed control at 250 g/ha (rice (Oryra sativa)): 70%; pest or weed control at 250 g/ha [13]: 0% |
| CC(=O)Oc1ccc(F)c(NC(=O)[C@H]2C(=O)N(C)C[C@@H]2c2cc(F)cc(F)c2)c1 [Compound 1019] | 0% | 0% | 0% | 0% | 0% | 0% | 0% | 0% | 0% | 0% | 0% | 0% | 0% | 0% | 0% | 0% | 0% | 0% | 0% | 0% | pest or weed control at 125 g/ha [1, 14]: 0%; pest or weed control at 125 g/ha [2, 16]: 0%; pest or weed control at 125 g/ha (Kochia (Kochia scoparia) [4]; [18]): 0%; pest or weed control at 250 g/ha [12]: 0%; pest or weed control at 250 g/ha (rice (Oryra sativa)): 0%; pest or weed control at 250 g/ha [13]: 0% |
| O=C1NC[C@H](c2ccc3c(c2)OCO3)[C@H]1C(=O)Nc1ccc(F)cc1F [Compound 1026] | 0% | 50% | 70% | 90% | 0% | 30% | 0% | 0% | 0% | 0% | 0% | 90% | 90% | 30% | 80% | 50% | 50% | 30% | 90% | 100% | pest or weed control at 125 g/ha [1, 14]: 0%; pest or weed control at 125 g/ha [2, 16]: 0%; pest or weed control at 125 g/ha (Kochia (Kochia scoparia) [4]; [18]): 0%; pest or weed control at 250 g/ha [12]: 0%; pest or weed control at 250 g/ha (rice (Oryra sativa)): 20%; pest or weed control at 250 g/ha [13]: 0% |
| CC(C)COc1cccc([C@H]2CN(C)C(=O)[C@@H]2C(=O)Nc2ccc(F)cc2F)c1 [Compound 1030] | 0% | 60% | 70% | 90% | 20% | 50% | 0% | 70% | 70% | 0% | 0% | 70% | 90% | 0% | 70% | 0% | 0% | 90% | 90% | 70% | pest or weed control at 125 g/ha ([1]; postemergence, visual injury on 0 to 100 scale (0 no effect, 100 complete control), approx. 10 d, read-out: Pigweed plant response rating): 0%; pest or weed control at 125 g/ha ([2]; postemergence, visual injury on 0 to 100 scale (0 no effect, 100 complete control), approx. 10 d, read-out: Galium plant response rating): 40%; pest or weed control at 125 g/ha (Kochia (Kochia scoparia) [4]; postemergence, visual injury on 0 to 100 scale (0 no effect, 100 complete control), approx. 10 d, read-out: Kochia plant response rating): 0%; pest or weed control at 250 g/ha [12]: 30%; pest or weed control at 250 g/ha (rice (Oryra sativa)): 0%; pest or weed control at 250 g/ha [13]: 0% |
